Results on seven compounds are retold here after patent publication US20130210817A1, “METHODS OF CONTROLLING NEONICOTINOID RESISTANT APHIDS” (SYNGENTA CROP PROTECTION LLC, priority 2010, published 2013).

The test system of data set [1] is neonicotinoid insecticide susceptible strain 4106A. The class given is in vivo. The following applies: mixed age aphids on chinese cabbage leaf discs, Potter Tower spray, mortality 72 hours after treatment; susceptible strain 4106A (Rothamsted Research). The protocol: (§1) The following bioassay methodology was utilized to generate the data included in the table:
(§2) 5 cm leaf discs were taken from fully expanded chinese cabbage leaves and placed with the underside facing upwards onto water agar in 5 cm Petri dishes. The leaf discs are infested with between 30 and 40 mixed age aphids 24 hours prior to insecticide treatment. The leaf surface is sprayed with the appropriate test solutions in a Burkhard Potter Tower at an approximate water volume of 450 l/ha. Test containers are stored at 21 °C, 60% RH and 16:8 light/dark. Aphids were assessed for mortality 72 hours after treatment.

For data set [2], the system named is neonicotinoid insecticide resistant aphid strain. Format: in vivo. The following applies: mixed age aphids on chinese cabbage leaf discs, Potter Tower spray, mortality 72 hours after treatment; resistant strain from peach orchard, Avignon region, 2009. The method, then:
as §1, §2

For the compound `CN/C(=N/CC1CCOC1)N[N+](=O)[O-]` (centres unmarked) [dinotefuran], the “LC50 with 95% confidence limit (ppm) susceptible strain” value in data set [1] is 9.95 (8.21-12.5) ppm. Besides, in data set [2], the “LC50 with 95% confidence limit (ppm) resistant strain” value is 538 (435-696) ppm.
For `CN1COCN(Cc2cnc(Cl)s2)/C1=N\[N+](=O)[O-]` [thiamethoxam], in that order: 0.35 (0.3-0.41) ppm and 148 (128-172) ppm.
Take `CCN(Cc1ccc(Cl)nc1)/C(=C/[N+](=O)[O-])NC` [nitenpyram]: the “LC50 with 95% confidence limit (ppm) susceptible strain” value in data set [1] is reported as 1.26 (1.03-1.61) ppm. In addition, in data set [2], the “LC50 with 95% confidence limit (ppm) resistant strain” value is listed as 237 (93.7-3566) ppm.
With `C/C(=N\C#N)N(C)Cc1ccc(Cl)nc1` [acetamiprid], in data set [1], the “LC50 with 95% confidence limit (ppm) susceptible strain” value was 0.55 (0.51-0.59) ppm. The “LC50 with 95% confidence limit (ppm) resistant strain” value in data set [2] is 49.3 (35.2-72.0) ppm.
Take `CC(=O)N1C(=O)N(NCc2cccnc2)Cc2cc(C(F)(C(F)(F)F)C(F)(F)F)ccc21` [pyrifluquinazon, 1-acetyl-1,2,3,4-tetrahydro-3-[(3-pyridylmethyl)amino]-6-[1,2,2,2-tetrafluoro-1-(trifluoromethyl)ethyl]quinazolin-2-one]: the “LC50 with 95% confidence limit (ppm) susceptible strain” value in data set [1] is 0.17 (0.13-0.22) ppm. Besides, in data set [2], the “LC50 with 95% confidence limit (ppm) resistant strain” value is listed as 0.09 (0.06-0.13) ppm.
Regarding `CN/C(=N\[N+](=O)[O-])NCc1cnc(Cl)s1` [clothianidin], in data set [1], the “LC50 with 95% confidence limit (ppm) susceptible strain” value was 0.33 (0.28-0.38) ppm. The “LC50 with 95% confidence limit (ppm) resistant strain” value in data set [2] was 904 (478-3616) ppm.
`N#C/N=C1\SCCN1Cc1ccc(Cl)nc1` [thiacloprid]: the “LC50 with 95% confidence limit (ppm) susceptible strain” value in data set [1] is listed as 0.38 (0.34-0.42) ppm. For the same compound, the “LC50 with 95% confidence limit (ppm) resistant strain” value in data set [2] is on record as over 1000 ppm.
